From patent US7160901B2, “Substituted indolinones, preparation thereof and their use as pharmaceutical compositions” (Boehringer Ingelheim Pharma GmbH & Co. KG, priority 2000, dated 2007)
Read-outs that look alike come from different tables or passages of the source.

Test system: Leiomyosarcoma tumour cell line SK-UT-1B
Assay: Test 1: inhibition of the proliferation of cultivated human tumour cells (14C-thymidine incorporation), SK-UT-1B
Type: cell-based
Conditions: in vitro Test 1, SK-UT-1B cells, 48 hours' incubation, then 14C-thymidine for a further 24 hours, IC50 of inhibition of incorporated 14C-thymidine, read-out: Inhibition of SKUT-1B proliferation
Source text: Inhibition of the Proliferation of Cultivated Human Tumour Cells
Cells of the Leiomyosarcoma tumour cell line SK-UT-1B or non-small-cell lung tumour cell line NCI-H460 (obtained from the American Type Culture Collection (ATCC)) were cultivated in Minimum Essential Medium with non-essential amino acids (Gibco), supplemented with sodium pyruvate (1 mMol), glutamine (2 mMol) and 10% foetal calf serum (Gibco) or RPMI1640 Medium (Gibco) and 10% foetal calf serum (Gibco) and harvested in the logarithmic growth phase. Then the SK-UT-1B cells were placed in Cytostar® multi-well plates (Amersham) at a density of 4000 cells per well or 3000 cells per well for NCI-H460 cells and incubated overnight in an incubator. Various concentrations of the compounds (dissolved in DMSO; final concentration: 0.1%) were added to the cells. After 48 hours' incubation, ^14C-thymidine (Amersham) was added to each well and incubation was continued for a further 24 hours. The quantity of ^14C-thymidine which was incorporated into the tumour cells in the presence of the inhibitor and which represents the number of cells in the S phase was measured in a Wallace 1450 Microbeta Liquid Scintillation Counter. IC50 values for the inhibition of the proliferation (=inhibition of incorporated ^14C-thymidine) were calculated, correcting for the background radiation. All the measurements were done twice.
The following Table contains the results obtained with the in vitro Test 1 (++ denotes <0.01 μM, + denotes 0.01–1.0 μM): […]

Row | Structure (SMILES) | IC50 (Homo sapiens, Skut1B) [nM] | IC50 [nM]
1 | CS(=O)(=O)N(CCN)c1ccc(N/C(=C2\C(=O)Nc3ccc(NS(=O)(=O)c4ccccc4)cc32)c2ccccc2)cc1 [Example 2, (Z)-3-{1-[4-(N-(2-aminoethyl)-N-methylsulphonyl-amino)-phenylamino]-1-phenyl-methylidene}-5-phenylsulphonylamino-2-indolinone] | 10 to 1000 | –
2 | CN1CCN(Cc2ccc(N/C(=C3\C(=O)Nc4ccc(NS(=O)(=O)c5ccccc5)cc43)c3ccccc3)cc2)CC1 [Example 9, (Z)-3-{1-[4-(4-methylpiperazinomethyl)-phenylamino]-1-phenyl-methylidene}-5-phenylsulphonylamino-2-indolinone] | 10 to 1000 | –
3 | CC(=O)N(C)c1ccc(N/C(=C2\C(=O)Nc3ccc(NS(=O)(=O)c4ccccc4)cc32)c2ccccc2)cc1 [Example 20, (Z)-3-{1-[4-(N-methyl-N-acetyl-amino)-phenylamino]-1-phenyl-methylidene}-5-phenylsulphonylamino-2-indolinone] | 10 to 1000 | –
4 | CN(C)Cc1ccc(N/C(=C2\C(=O)Nc3ccc(NS(=O)(=O)c4ccccc4)cc32)c2ccccc2)cc1 [Example 36, (Z)-3-[1-(4-dimethylaminomethyl-phenylamino)-1-phenyl-methylidene]-5-phenylsulphonylamino-2-indole] | – | < 10
5 | CN(c1ccc(N/C(=C2\C(=O)Nc3ccc(NS(=O)(=O)c4ccccc4)cc32)c2ccccc2)cc1)S(C)(=O)=O [Example 42, (Z)-3-[1-(4-(N-methyl-N-methylsulphonyl-amino)-phenylamino)-1-phenyl-methylidene]-5-phenylsulphonylamino-2-indolinone] | 10 to 1000 | –
6 | CN(C(=O)CN1CCCCC1)c1ccc(N/C(=C2\C(=O)Nc3ccc(NS(=O)(=O)c4ccccc4)cc32)c2ccccc2)cc1 [Example 56, (Z)-3-[1-(4-(N-methyl-N-piperidinomethylcarbonyl-amino)-phenylamino)-1-phenyl-methylidene]-5-phenylsulphonylamino-2-indolinone] | < 10 | –
7 | O=C1Nc2ccc(NS(=O)(=O)Cc3ccccc3)cc2/C1=C(/Nc1ccc(CN2CCCC2)cc1)c1ccccc1 [Example 58, (Z)-3-{1-[4-(pyrrolidin-1-ylmethyl)-phenylamino]-1-phenyl-methylidene}-5-benzylsulphonylamino-2-indolinone] | 10 to 1000 | –
8 | CCS(=O)(=O)Nc1ccc2c(c1)/C(=C(/Nc1ccc(CCN(C)C)cc1)c1ccccc1)C(=O)N2 [Example 72, (Z)-3-{1-[4-(2-dimethylamino-ethyl)-phenylamino]-1-phenyl-methylidene}-5-ethylsulphonylamino-2-indolinone] | 10 to 1000 | –
9 | O=C1Nc2ccc(NS(=O)(=O)c3cccnc3)cc2/C1=C(/Nc1ccc(CN2CCCC2)cc1)c1ccccc1 [Example 80, (Z)-3-{1-[4-(pyrrolidin-1-ylmethyl)-phenylamino]-1-phenyl-methylidene}-5-(pyridin-3-ylsulphonylamino)-2-indolinone] | < 10 | –
10 | O=C1Nc2ccc(NS(=O)(=O)c3cccc4ccccc34)cc2/C1=C(/Nc1ccc(CN2CCCCC2)cc1)c1ccccc1 [Example 104, (Z)-3-{1-[4-(piperidinomethyl)-phenylamino]-1-phenyl-methylidene}-5-(naphthalin-1-ylsulphonylamino)-2-indolinone] | < 10 | –
11 | O=C1Nc2ccc(NS(=O)(=O)C3CC3)cc2/C1=C(/Nc1ccc(CN2CCCCC2)cc1)c1ccccc1 [Example 120, (Z)-3-{1-[4-(piperidinomethyl)-phenylamino]-1-phenyl-methylidene}-5-cyclopropylsulphonylamino-2-indolinone] | < 10 | –
12 | O=C1Nc2ccc(N(c3cccnc3)S(=O)(=O)c3ccccc3)cc2/C1=C(/Nc1ccc(CN2CCCCC2)cc1)c1ccccc1 [Example 134, (Z)-3-{1-[4-(piperidinomethyl)-phenylamino]-1-phenyl-methylidene}-5-(pyridin-3-ylphenylsulphonylamino)-2-indolinone] | < 10 | –

Results, then the compound that gave them:

Row | IC50 (Homo sapiens, Skut1B) [nM] | IC50 [nM] | Structure (SMILES)
13 | < 10 | – | CN(C)CCN(c1ccc(N/C(=C2\C(=O)Nc3ccc(NS(=O)(=O)c4ccccc4)cc32)c2ccccc2)cc1)S(=O)(=O)c1ccccc1 [Example 4, (Z)-3-{1-[4-(N-(2-dimethylaminoethyl)-N-phenylsulphonyl-amino)-phenylamino)-1-phenyl-methylidene}-5-phenylsulphonylamino-2-indolinone]
14 | 10 to 1000 | – | O=C1Nc2ccc(NS(=O)(=O)c3ccccc3)cc2/C1=C(/Nc1ccc(CN2CCCC2)cc1)c1ccccc1 [Example 12, (Z)-3-{1-[4-(pyrrolidin-1-ylmethyl)-phenylamino]-1-phenyl-methylidene}-5-phenylsulphonylamino-2-indolinone]
15 | 10 to 1000 | – | O=C1Nc2ccc(NS(=O)(=O)c3ccccc3)cc2/C1=C(/Nc1ccccc1)c1ccccc1 [Example 22, (Z)-3-(1-phenylamino-1-phenyl-methylidene)-5-phenylsulphonylamino-2-indolinone]
16 | 10 to 1000 | – | O=C1Nc2ccc(NS(=O)(=O)c3ccccc3)cc2/C1=C(/Nc1ccc(Cl)cc1)c1ccccc1 [Example 23, (Z)-3-[1-(4-chlorophenylamino)-1-phenyl-methylidene]-5-phenylsulphonylamino-2-indolinone]
17 | < 10 | – | CCC(=O)NCCN(C(=O)CC)c1ccc(N/C(=C2\C(=O)Nc3ccc(NS(=O)(=O)c4ccccc4)cc32)c2ccccc2)cc1 [Example 31, (Z)-3-{1-[4-(N-(2-propionylamino-ethyl)-N-propionyl-amino)-phenylamino]-1-phenyl-methylidene}-5-phenylsulphonylamino-2-indolinone]
18 | < 10 | – | CC1CCCC(C)N1Cc1ccc(N/C(=C2\C(=O)Nc3ccc(NS(=O)(=O)c4cccc([N+](=O)[O-])c4)cc32)c2ccccc2)cc1 (stereo not shown) [Example 66, (Z)-3-{1-[4-((2,6-dimethylpiperidino)-methyl)-phenylamino]-1-phenyl-methylidene}-5-(3-nitrophenylsulphonylamino)-2-indolinone]
19 | 10 to 1000 | – | CCS(=O)(=O)Nc1ccc2c(c1)/C(=C(/Nc1ccc(CN(C)C)cc1)c1ccccc1)C(=O)N2 [Example 70, (Z)-3-{1-[4-dimethylaminomethyl-phenylamino]-1-phenyl-methylidene}-5-ethylsulphonylamino-2-indolinone]
20 | 10 to 1000 | – | CCS(=O)(=O)Nc1ccc2c(c1)/C(=C(/Nc1ccc(CN(C)Cc3ccccc3)cc1)c1ccccc1)C(=O)N2 [Example 71, (Z)-3-{1-[4-(N-benzyl-N-methyl-aminomethyl)-phenylamino]-1-phenyl-methylidene}-5-ethylsulphonylamino-2-indolinone]
21 | 10 to 1000 | – | O=C1Nc2ccc(NS(=O)(=O)c3cccnc3)cc2/C1=C(/Nc1ccc(C(=O)N2CCCC2)cc1)c1ccccc1 [Example 88, (Z)-3-{1-[4-(pyrrolidin-1-ylcarbonyl)-phenylamino]-1-phenyl-methylidene}-5-(pyridin-3-ylsulphonylamino)-2-indolinone]
22 | < 10 | – | CCS(=O)(=O)Nc1ccc2c(c1)/C(=C(/Nc1ccc(CN3CCCCC3)cc1)c1ccccc1)C(=O)N2 [Example 99, (Z)-3-{1-[4-(piperidinomethyl)-phenylamino]-1-phenyl-methylidene}-5-ethylsulphonylamino-2-indolinone]
23 | < 10 | – | CC(C)S(=O)(=O)Nc1ccc2c(c1)/C(=C(/Nc1ccc(CN3CCCCC3)cc1)c1ccccc1)C(=O)N2 [Example 101, (Z)-3-{1-[4-(piperidinomethyl)-phenylamino]-1-phenyl-methylidene}-5-isopropylsulphonylamino-2-indolinone]
24 | < 10 | – | O=C1Nc2ccc(NS(=O)(=O)c3cccc([N+](=O)[O-])c3)cc2/C1=C(/Nc1ccc(CN2CCCCC2)cc1)c1ccccc1 [Example 112, (Z)-3-{1-[4-(piperidinomethyl)-phenylamino]-1-phenyl-methylidene}-5-(3-nitrophenylsulphonylamino)-2-indolinone]
25 | 10 to 1000 | – | Cc1noc(C)c1S(=O)(=O)Nc1ccc2c(c1)/C(=C(/Nc1ccc(CN3CCCCC3)cc1)c1ccccc1)C(=O)N2 [Example 117, (Z)-3-{1-[4-(piperidinomethyl)-phenylamino]-1-phenyl-methylidene}-5-(3,5-dimethylisoxazol-4-ylsulphonylamino)-2-indolinone]
26 | 10 to 1000 | – | O=C1Nc2ccc(NS(=O)(=O)C3CC3)cc2/C1=C(/Nc1ccc(CN2CCCC2)cc1)c1ccccc1 [Example 142, (Z)-3-{1-[4-(pyrrolidin-1-ylmethyl)-phenylamino]-1-phenyl-methylidene}-5-cyclopropylsulphonylamino-2-indolinone]
27 | 10 to 1000 | – | CCCS(=O)(=O)Nc1ccc2c(c1)/C(=C(/Nc1ccc(CN3CCCC3)cc1)c1ccccc1)C(=O)N2 [Example 143, (Z)-3-{1-[4-(pyrrolidin-1-ylmethyl)-phenylamino]-1-phenyl-methylidene}-5-propylsulphonylamino-2-indolinone]
28 | 10 to 1000 | – | CCS(=O)(=O)Nc1ccc2c(c1)/C(=C(/Nc1ccc(CN3CCCC3)cc1)c1ccccc1)C(=O)N2 [Example 144, (Z)-3-{1-[4-(pyrrolidin-1-ylmethyl)-phenylamino]-1-phenyl-methylidene}-5-ethylsulphonylamino-2-indolinone]
